Key:
hCav1.2 = hCav1.2 (Homo sapiens, UniProt Q13936); test: Automated patch clamp, hCav1.2 current block
Experimental: Peak current was measured during the step to 0 mV. Leak current was measured after applying a saturating concentration of a blocker such as cadmium (200 µM) at the end of each experiment to completely block hCav1.2 current.
Concentration-response relationships for each test article were independently investigated, i.e., each cell received only one test article, typically evaluating multiple concentrations in a cumulative fashion (lowest to highest concentrations). However, some platforms tested only one concentration per well. Each concentration response was based on a minimum of four concentrations, with a minimum of three wells used for each concentration. In cases of high variability, more cells per concentration were recorded. Prior to drug addition, cells received an addition of vehicle to measure non-test article-related effects such as addition artifacts. At the end of the experiment, a supramaximal concentration of a known inhibitory reference compound was applied to assess leak current and appropriate responsiveness of the test system. While it was recommended that a separate group of cells (n ≥ 3) be recorded for each experimental day to determine the baseline response to vehicle and to address day-to-day variability, this was not verified.
These criteria were applied to all APC platforms.
(§1) The steady state current at each concentration was used to determine the concentration-response relationships. Mean concentration-response data were fitted to a standard sigmoidal four-parameter logistic equation (GraphPad Prism 7; GraphPad Inc., La Jolla, CA) of the form: Y=Bottom+(Top−Bottom)/(1+10^∧(LogIC50−X)∗HillSlope) where Y is the current inhibition (in % of pre-drug control), X is the logarithm of drug concentration, and IC50 is the drug concentration producing half-maximal current inhibition. Curve fitting was performed using the following constraints: Top = 100%, Bottom = 0%, Hill Slope <2. No curve fitting was performed in cases with an obvious lack of a concentration-dependent current inhibition and/or small effect size (approximately ≤20%).

hERG [1] = biological target: T1, hERG (Homo sapiens, UniProt Q12809); test: Automated patch clamp, hERG current block (consensus step-ramp protocol); settings: for hERG K+ current inhibition, Mean, at maximal concentration: max conc [mol/L]: bep 3.00E-07, cpz 3.00E-06, cis 3.00E-07, dil 1.00E-04, dof 1.00E-07, mex 1.00E-04, ond 1.00E-05, qui 1.00E-05, ran 1.00E-04, sot 3.00E-04, ter 3.00E-07, ver 1.00E-06; for hERG K+ current inhibition, Mean, at minimal concentration: min conc [mol/L]: bep 1.00E-08, cpz 1.00E-07, cis 1.00E-09, dil 3.00E-06, dof 1.00E-09, mex 1.00E-06, ond 3.00E-07, qui 1.00E-07, ran 3.00E-06, sot 1.00E-05, ter 1.00E-08, ver 3.00E-08
T1 sequence (Q12809 whole entry): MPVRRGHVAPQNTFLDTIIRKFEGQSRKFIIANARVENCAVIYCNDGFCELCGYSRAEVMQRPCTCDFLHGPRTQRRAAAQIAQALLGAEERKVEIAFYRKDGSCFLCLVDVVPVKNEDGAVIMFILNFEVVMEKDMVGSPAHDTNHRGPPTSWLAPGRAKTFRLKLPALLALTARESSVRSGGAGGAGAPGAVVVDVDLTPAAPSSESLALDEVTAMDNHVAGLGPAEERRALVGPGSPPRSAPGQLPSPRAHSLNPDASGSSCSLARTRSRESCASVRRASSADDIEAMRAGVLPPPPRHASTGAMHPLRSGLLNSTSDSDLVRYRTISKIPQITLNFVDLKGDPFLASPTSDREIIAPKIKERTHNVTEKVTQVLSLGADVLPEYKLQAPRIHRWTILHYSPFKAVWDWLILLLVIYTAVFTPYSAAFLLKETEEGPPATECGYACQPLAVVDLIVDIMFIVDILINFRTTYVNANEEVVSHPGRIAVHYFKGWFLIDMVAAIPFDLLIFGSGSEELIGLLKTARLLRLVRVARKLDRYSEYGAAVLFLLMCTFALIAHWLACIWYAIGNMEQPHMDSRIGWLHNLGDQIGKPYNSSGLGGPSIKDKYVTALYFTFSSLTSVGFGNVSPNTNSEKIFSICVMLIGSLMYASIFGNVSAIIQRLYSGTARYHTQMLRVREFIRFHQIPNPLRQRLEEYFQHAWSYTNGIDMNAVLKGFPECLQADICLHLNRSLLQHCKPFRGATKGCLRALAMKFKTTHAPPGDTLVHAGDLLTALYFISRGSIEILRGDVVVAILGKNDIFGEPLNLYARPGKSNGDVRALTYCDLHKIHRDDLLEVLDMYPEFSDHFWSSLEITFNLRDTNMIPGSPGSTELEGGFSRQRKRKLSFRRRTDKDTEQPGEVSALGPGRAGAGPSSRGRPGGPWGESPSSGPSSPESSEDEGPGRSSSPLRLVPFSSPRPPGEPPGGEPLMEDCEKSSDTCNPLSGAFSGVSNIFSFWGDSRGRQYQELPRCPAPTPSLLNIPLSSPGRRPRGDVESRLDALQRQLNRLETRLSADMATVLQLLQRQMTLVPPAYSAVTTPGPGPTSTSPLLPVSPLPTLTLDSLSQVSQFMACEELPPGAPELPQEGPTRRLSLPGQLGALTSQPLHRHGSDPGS

hERG [2] = biological target: T1, hERG; test: Automated patch clamp, hERG current block, Milnes protocol (site s06); format: cell-based; set-up: expressed in transfected cells; host or cells: HEK293 or CHO, depending on site (site s06, Milnes protocol: HEK293); settings: s06_p4, HEK293, 22–24 °C
Text: Thus, a single test site (s06) elicited hERG current with a 10-s depolarizing voltage step from −80 mV to 0 mV every 25 s (Milnes protocol, see Milnes et al.[14]).
as §1
This protocol consists of a set of two 25-s-long pulse protocols, with one protocol (“Pulse”) containing a prolonged 10-s-long depolarizing test pulse (0 mV) followed by a 14-s-long return pulse to −80 mV, and a second protocol “No-Pulse” consisting of the same pulse structure without the depolarizing test pulse[18].

[3] = s03_p2, HEK293, room temperature
[4] = s16_p3, HEK293, room temperature

Sequence of hCav1.2 (Q13936 whole entry): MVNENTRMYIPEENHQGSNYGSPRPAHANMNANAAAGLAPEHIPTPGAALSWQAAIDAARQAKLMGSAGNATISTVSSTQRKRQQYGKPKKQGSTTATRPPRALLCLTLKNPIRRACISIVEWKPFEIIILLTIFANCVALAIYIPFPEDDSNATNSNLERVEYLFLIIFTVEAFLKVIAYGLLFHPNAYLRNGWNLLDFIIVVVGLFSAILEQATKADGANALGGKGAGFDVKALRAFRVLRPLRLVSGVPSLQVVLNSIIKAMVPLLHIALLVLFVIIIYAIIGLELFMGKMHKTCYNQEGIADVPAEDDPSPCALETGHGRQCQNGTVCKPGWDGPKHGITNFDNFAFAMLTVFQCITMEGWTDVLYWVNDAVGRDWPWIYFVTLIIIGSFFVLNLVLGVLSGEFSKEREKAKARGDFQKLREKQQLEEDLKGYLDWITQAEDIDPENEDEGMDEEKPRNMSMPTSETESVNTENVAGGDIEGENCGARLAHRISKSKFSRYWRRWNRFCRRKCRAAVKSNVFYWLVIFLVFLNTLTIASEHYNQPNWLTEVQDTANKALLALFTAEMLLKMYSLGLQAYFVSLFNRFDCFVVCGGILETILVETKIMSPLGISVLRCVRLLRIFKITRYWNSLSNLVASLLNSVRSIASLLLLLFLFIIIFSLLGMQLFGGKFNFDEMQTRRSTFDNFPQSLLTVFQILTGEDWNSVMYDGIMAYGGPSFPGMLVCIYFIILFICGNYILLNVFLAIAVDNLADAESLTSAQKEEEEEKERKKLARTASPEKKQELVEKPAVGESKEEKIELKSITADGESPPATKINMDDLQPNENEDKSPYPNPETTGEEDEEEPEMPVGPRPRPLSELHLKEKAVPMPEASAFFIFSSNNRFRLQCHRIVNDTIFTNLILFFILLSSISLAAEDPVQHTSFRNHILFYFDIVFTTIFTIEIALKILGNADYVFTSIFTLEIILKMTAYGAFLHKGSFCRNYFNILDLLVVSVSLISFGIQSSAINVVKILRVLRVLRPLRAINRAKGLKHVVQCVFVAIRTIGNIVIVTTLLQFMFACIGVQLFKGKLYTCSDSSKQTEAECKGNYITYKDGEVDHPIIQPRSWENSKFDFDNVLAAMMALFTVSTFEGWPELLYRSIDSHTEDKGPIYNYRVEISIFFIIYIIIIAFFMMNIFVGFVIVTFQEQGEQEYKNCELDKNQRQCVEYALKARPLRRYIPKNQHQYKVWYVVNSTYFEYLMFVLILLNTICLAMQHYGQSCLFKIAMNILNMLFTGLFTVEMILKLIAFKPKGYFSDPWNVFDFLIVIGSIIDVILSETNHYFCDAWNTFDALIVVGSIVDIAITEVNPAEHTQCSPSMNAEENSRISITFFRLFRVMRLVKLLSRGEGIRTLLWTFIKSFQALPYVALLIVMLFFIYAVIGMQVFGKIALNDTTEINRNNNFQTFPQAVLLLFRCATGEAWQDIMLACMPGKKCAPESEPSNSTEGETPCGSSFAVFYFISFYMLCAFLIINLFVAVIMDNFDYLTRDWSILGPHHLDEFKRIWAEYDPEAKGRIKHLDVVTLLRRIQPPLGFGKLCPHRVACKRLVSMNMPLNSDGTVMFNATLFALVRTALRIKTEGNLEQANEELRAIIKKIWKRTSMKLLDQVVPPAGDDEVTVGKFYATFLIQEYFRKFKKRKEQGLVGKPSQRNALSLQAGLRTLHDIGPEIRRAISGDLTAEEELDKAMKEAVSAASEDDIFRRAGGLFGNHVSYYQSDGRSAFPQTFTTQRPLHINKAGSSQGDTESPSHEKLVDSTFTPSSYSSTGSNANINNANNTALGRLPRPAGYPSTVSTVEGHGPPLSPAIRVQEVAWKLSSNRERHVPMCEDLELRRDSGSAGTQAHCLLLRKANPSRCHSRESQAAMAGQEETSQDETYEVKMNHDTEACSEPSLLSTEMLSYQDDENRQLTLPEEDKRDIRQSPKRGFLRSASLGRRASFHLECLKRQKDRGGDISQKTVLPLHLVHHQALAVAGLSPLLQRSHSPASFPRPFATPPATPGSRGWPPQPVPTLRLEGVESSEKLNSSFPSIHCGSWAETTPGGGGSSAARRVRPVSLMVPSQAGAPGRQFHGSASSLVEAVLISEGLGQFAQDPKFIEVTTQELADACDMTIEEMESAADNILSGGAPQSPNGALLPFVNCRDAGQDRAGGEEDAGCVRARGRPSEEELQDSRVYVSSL
Sequence of hCav1.2 (Q08289 whole entry partner): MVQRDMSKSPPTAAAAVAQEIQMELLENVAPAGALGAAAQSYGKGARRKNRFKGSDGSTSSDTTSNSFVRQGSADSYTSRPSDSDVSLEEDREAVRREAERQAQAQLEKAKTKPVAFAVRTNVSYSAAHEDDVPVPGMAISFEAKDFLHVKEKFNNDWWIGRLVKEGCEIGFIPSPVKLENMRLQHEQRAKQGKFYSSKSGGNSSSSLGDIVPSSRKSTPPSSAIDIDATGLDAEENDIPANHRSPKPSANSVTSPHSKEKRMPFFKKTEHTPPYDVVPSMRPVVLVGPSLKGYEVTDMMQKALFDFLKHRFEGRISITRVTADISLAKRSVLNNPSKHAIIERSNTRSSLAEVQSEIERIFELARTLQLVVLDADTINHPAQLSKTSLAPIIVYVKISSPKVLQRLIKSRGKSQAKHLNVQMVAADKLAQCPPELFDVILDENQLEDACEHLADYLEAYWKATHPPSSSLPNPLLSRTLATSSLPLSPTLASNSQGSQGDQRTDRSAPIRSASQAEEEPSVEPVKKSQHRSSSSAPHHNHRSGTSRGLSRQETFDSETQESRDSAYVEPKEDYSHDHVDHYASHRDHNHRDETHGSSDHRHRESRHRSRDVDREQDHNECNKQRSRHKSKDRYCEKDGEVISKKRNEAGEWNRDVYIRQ
Sequence of hCav1.2 (P54289 25-956 partner limits assumed): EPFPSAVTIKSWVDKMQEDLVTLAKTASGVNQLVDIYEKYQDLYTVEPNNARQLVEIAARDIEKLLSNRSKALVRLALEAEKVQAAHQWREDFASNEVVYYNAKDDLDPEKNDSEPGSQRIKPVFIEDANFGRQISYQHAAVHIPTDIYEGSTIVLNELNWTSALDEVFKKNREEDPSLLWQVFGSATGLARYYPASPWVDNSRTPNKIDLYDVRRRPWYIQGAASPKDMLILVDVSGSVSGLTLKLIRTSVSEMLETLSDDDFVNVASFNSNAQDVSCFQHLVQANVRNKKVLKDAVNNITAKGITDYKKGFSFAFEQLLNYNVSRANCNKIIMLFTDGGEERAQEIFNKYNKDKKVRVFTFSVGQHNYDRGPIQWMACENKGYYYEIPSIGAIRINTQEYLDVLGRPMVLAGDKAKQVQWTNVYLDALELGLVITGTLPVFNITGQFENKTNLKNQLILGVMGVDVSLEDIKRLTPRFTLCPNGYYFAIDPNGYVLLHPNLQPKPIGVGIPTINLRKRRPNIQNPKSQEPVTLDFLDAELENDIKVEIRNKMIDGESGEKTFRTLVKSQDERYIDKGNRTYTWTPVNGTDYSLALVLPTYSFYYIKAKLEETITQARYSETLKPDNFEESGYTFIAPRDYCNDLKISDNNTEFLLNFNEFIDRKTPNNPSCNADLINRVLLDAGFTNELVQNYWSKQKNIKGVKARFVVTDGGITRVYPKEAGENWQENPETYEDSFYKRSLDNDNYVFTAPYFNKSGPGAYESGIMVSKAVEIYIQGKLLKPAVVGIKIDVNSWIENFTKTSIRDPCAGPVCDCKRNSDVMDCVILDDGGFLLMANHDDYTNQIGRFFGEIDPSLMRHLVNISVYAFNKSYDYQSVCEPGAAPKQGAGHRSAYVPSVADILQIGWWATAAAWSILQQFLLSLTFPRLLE
Sequence of hCav1.2 (P54289 957-1103 partner limits assumed): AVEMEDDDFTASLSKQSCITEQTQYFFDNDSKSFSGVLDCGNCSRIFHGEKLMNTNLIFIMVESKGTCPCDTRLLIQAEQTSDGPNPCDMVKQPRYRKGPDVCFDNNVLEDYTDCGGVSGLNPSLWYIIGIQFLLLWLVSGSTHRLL

Cc1nccn1CC1CCc2c(c3ccccc3n2C)C1=O (centres unmarked) [ond, ondansetron]
log IC50, half-maximal inhibitory concentration (hCav1.2; site s01_p1): no inh. | Peak hCav1.2 Ca2+ current inhibition, Mean (hCav1.2; site s01_p1, 3.00E-07 mol/L): 3.2% | log IC50, half-maximal inhibitory concentration (hCav1.2; site s02_p2, corrected for rundown): no inh. | Peak hCav1.2 Ca2+ current inhibition, Mean (hCav1.2; site s02_p2, corrected for rundown, 3.00E-07 mol/L): -6.3% | nH, Hill slope (hCav1.2; site s04_p3): 0.60 | Peak hCav1.2 Ca2+ current inhibition, Mean (hCav1.2; site s04_p3, 1.00E-05 mol/L): 16.1% | Peak hCav1.2 Ca2+ current inhibition, Mean (hCav1.2; site s04_p3, 3.00E-07 mol/L): 2.6% | log IC50, half-maximal inhibitory concentration (hCav1.2; site s06_p4): no inh. | Peak hCav1.2 Ca2+ current inhibition, Mean (hCav1.2; site s06_p4, 3.00E-07 mol/L): 18.9% | log IC50, half-maximal inhibitory concentration (hCav1.2; site s11_p1): no inh. | Peak hCav1.2 Ca2+ current inhibition, Mean (hCav1.2; site s11_p1, 3.00E-07 mol/L): 19.7% | nH, Hill slope (hCav1.2; site s14_p1): 2.00 | Peak hCav1.2 Ca2+ current inhibition, Mean (hCav1.2; site s14_p1, 3.00E-07 mol/L): 4.0% | nH, Hill slope (hCav1.2; site s16_p3): 0.42 | Peak hCav1.2 Ca2+ current inhibition, Mean (hCav1.2; site s16_p3, 3.00E-07 mol/L): 20.6% | log IC50, half-maximal inhibitory concentration (hCav1.2; site s18_p1): no inh. | Peak hCav1.2 Ca2+ current inhibition, Mean (hCav1.2; site s18_p1, 3.00E-07 mol/L): 16.9% | inhibition at 1e-05 mol/L (hERG [1]; human, recombinant cells expressing hERG, hERG K+ current inhibition, Mean, site_platform s07_p5, 1.00E-05 mol/L): 101% | inhibition at 3e-07 mol/L (hERG [1]; human, recombinant cells expressing hERG, hERG K+ current inhibition, Mean, site_platform s07_p5, 3.00E-07 mol/L): 17% | inhibition at 4 min, 1e-05 mol/L (hERG [1]; human, recombinant cells expressing hERG, hERG K+ current inhibition, Mean, site_platform s10_p3, 1.00E-05 mol/L): 71.8% | inhibition at 4 min, 3e-07 mol/L (hERG [1]; human, recombinant cells expressing hERG, hERG K+ current inhibition, Mean, site_platform s10_p3, 3.00E-07 mol/L): 9.7% | inhibition at 7 min, 1e-05 mol/L (hERG [1]; human, recombinant cells expressing hERG, hERG K+ current inhibition, Mean, site_platform s11_p1, 1.00E-05 mol/L): 89.6% | inhibition at 7 min, 3e-07 mol/L (hERG [1]; human, recombinant cells expressing hERG, hERG K+ current inhibition, Mean, site_platform s11_p1, 3.00E-07 mol/L): 11.6% | inhibition at 1e-05 mol/L (hERG [1]; human, recombinant cells expressing hERG, hERG K+ current inhibition, Mean, site_platform s12_p2, 1.00E-05 mol/L): 91.6% | inhibition at 3e-07 mol/L (hERG [1]; human, recombinant cells expressing hERG, hERG K+ current inhibition, Mean, site_platform s12_p2, 3.00E-07 mol/L): 19.3% | inhibition at 1e-05 mol/L (hERG [1]; human, recombinant cells expressing hERG, hERG K+ current inhibition, Mean, site_platform s13_p2, 1.00E-05 mol/L): 90% | inhibition at 3e-07 mol/L (hERG [1]; human, recombinant cells expressing hERG, hERG K+ current inhibition, Mean, site_platform s13_p2, 3.00E-07 mol/L): 11.4% | inhibition at 7 min, 1e-05 mol/L (hERG [1]; human, recombinant cells expressing hERG, hERG K+ current inhibition, Mean, site_platform s14_p1, 1.00E-05 mol/L): 89.4% | inhibition at 7 min, 3e-07 mol/L (hERG [1]; human, recombinant cells expressing hERG, hERG K+ current inhibition, Mean, site_platform s14_p1, 3.00E-07 mol/L): 58.7% | hERG K+ current nH, Hill slope (hERG [1]; s01_p1, CHO, 23 °C): 1.06 | hERG K+ current inhibition, Mean, at maximal concentration (hERG [1]; s01_p1, CHO, 23 °C): 83.1% | hERG K+ current inhibition, Mean, at minimal concentration (hERG [1]; s01_p1, CHO, 23 °C): 8.8% | hERG K+ current nH, Hill slope (hERG [1]; s02_p2, HEK293, 22–26 °C): 1.07 | hERG K+ current inhibition, Mean, at maximal concentration (hERG [1]; s02_p2, HEK293, 22–26 °C): 79.8% | hERG K+ current inhibition, Mean, at minimal concentration (hERG [1]; s02_p2, HEK293, 22–26 °C): 6.1% | hERG K+ current nH, Hill slope (hERG [1]; [3]): 1.08 | hERG K+ current inhibition, Mean, at maximal concentration (hERG [1]; [3]): 99.9% | hERG K+ current inhibition, Mean, at minimal concentration (hERG [1]; [3]): 37.2% | hERG K+ current nH, Hill slope (hERG [1]; s04_p3, CHO, room temperature): 0.97 | hERG K+ current inhibition, Mean, at maximal concentration (hERG [1]; s04_p3, CHO, room temperature): 90.6% | hERG K+ current inhibition, Mean, at minimal concentration (hERG [1]; s04_p3, CHO, room temperature): 22.1% | hERG K+ current nH, Hill slope (hERG [1]; s05_p4, HEK293, 22–24 °C): 1.32 | hERG K+ current inhibition, Mean, at maximal concentration (hERG [1]; s05_p4, HEK293, 22–24 °C): 93.2% | hERG K+ current inhibition, Mean, at minimal concentration (hERG [1]; s05_p4, HEK293, 22–24 °C): 9.6% | hERG K+ current nH, Hill slope (hERG [1]; s15_p1, HEK293, 22–23 °C): 0.88 | hERG K+ current inhibition, Mean, at maximal concentration (hERG [1]; s15_p1, HEK293, 22–23 °C): 87.4% | hERG K+ current inhibition, Mean, at minimal concentration (hERG [1]; s15_p1, HEK293, 22–23 °C): 25.2% | hERG K+ current nH, Hill slope (hERG [1]; [4]): 1.01 | hERG K+ current inhibition, Mean, at maximal concentration (hERG [1]; [4]): 84.1% | hERG K+ current inhibition, Mean, at minimal concentration (hERG [1]; [4]): 11.9% | hERG K+ current nH, Hill slope (hERG [1]; s18_p1, CHO, 35 °C): 1.05 | hERG K+ current inhibition, Mean, at maximal concentration (hERG [1]; s18_p1, CHO, 35 °C): 85.6% | hERG K+ current inhibition, Mean, at minimal concentration (hERG [1]; s18_p1, CHO, 35 °C): 12.7% | hERG K+ current nH, Hill slope (hERG [1]; s19_p3, CHO, room temperature): 1.01 | hERG K+ current inhibition, Mean, at maximal concentration (hERG [1]; s19_p3, CHO, room temperature): 92.9% | hERG K+ current inhibition, Mean, at minimal concentration (hERG [1]; s19_p3, CHO, room temperature): 25.8% | nH (Hill slope), hERG K+ current inhibition (hERG [1]; site_platform s07_p5): 1.26 | nH (Hill slope), hERG K+ current inhibition (hERG [1]; site_platform s10_p3): 0.98 | nH (Hill slope), hERG K+ current inhibition (hERG [1]; site_platform s11_p1): 1.10 | nH (Hill slope), hERG K+ current inhibition (hERG [1]; site_platform s12_p2): 1.03 | nH (Hill slope), hERG K+ current inhibition (hERG [1]; site_platform s13_p2): 1.19 | nH (Hill slope), hERG K+ current inhibition (hERG [1]; site_platform s14_p1): 0.47 | hERG K+ current nH, Hill slope (hERG [2]): 1.05 | hERG K+ current inhibition, Mean, at maximal concentration (hERG [2]; max conc [mol/L]: bep 3.00E-07, cpz 3.00E-06, cis 3.00E-07, dil 1.00E-04, dof 1.00E-07, mex 1.00E-04, ond 1.00E-05, qui 1.00E-05, ran 1.00E-04, sot 3.00E-04, ter 3.00E-07, ver 1.00E-06): 95.5% | hERG K+ current inhibition, Mean, at minimal concentration (hERG [2]; min conc [mol/L]: bep 1.00E-08, cpz 1.00E-07, cis 1.00E-09, dil 3.00E-06, dof 1.00E-09, mex 1.00E-06, ond 3.00E-07, qui 1.00E-07, ran 3.00E-06, sot 1.00E-05, ter 1.00E-08, ver 3.00E-08): 25.3%

Source: paper PMC7101356, “Cross-site and cross-platform variability of automated patch clamp assessments of drug effects on human cardiac currents in recombinant cells” (Scientific Reports, 2020)
